# Laboratory results from patent US12378199B2, “Rigidified pentadentate chelating agents useful for the [Al18F]2+ labelling of biomolecules” (UNIVERSITÀ DEGLI STUDI DEL PIEMONTE ORIENTALE “A. AVOGADRO”, priority 2019, dated 2025).
# Assay: stability of the AlF-18 complexes by incubation in human serum
# Format: in vitro ADME
# Procedure: The reactions for labelling with [AlF-18]^2+ were carried out at various pH (between 4 and 6.5) and at various temperatures (25, 37 and 80°). The preparation of [AlF-18]^2+ and the subsequent labelling with the chelating agents covered by the present patent were carried out according to the procedure cited by Bormans and colleagues (Nature Prot. 2018, 13, 2330-2347). The labeled products were purified using Sep-Pak Alumina N Plus Light cartridges and eluted with a 0.9% NaCl solution. All of the products were analyzed by means of radio-TLC and radio-HPLC and the stability of the tracers was studied at 10, 30, 60, 120 and 240 minutes by means of incubation in […] different solutions: human serum, PBS, EDTA 5 mM and 0.9% NaCl solutions.
# An additional advantage is the stability in human serum detected for the compounds of the present invention. An increased stability in human serum was measured for the chelating agent 2-AMPDA-HB, with 90% of AlF-18 still complexed after 120 minutes, whereas the complexed percentage was 55% for the chelating agent 2-AMPTA.
compound,measurement,setting,value
O=C(O)CN(CC(=O)O)CC1CCCCN1CC(=O)O (centres unmarked) [2-AMPTA],AlF-18 still complexed in human serum,after 120 minutes,55%
same,stability of the AlF-18 complexes in human serum,after 240 minutes,33%
